melting point [°C] | Structure (SMILES)
199 to 201 | CNc1nc(-c2cccc(-n3cccc3)c2)c2cc(OC)c(OC)cc2n1
135 to 138 | O=C(O)CC(Cc1ccccc1[N+](=O)[O-])C(=O)O (stereo not drawn)
197 to 199 | Nc1cc(Sc2ccc3c(C(=O)Nc4cccc(OC(F)(F)F)c4)cccc3c2)ncn1
78 to 81 | CCSC1=C(c2ccc(O)cc2)C(=O)c2cc(O)ccc21
132 to 133 | CC1C(=O)C2CC(=O)N2C1C(=O)OC(c1ccccc1)c1ccccc1 (stereo not drawn)
192 to 193 | O=C1N(Cc2cc3cccc(F)c3o2)c2ccccc2C12COc1cc3c(cc12)CCO3 (stereo not drawn)
183 to 185 | CCC(=O)c1ccc2c(c1)C1(CC1)C(=O)N2
69 to 71 | CCCCCNc1ccc(OC2CCN(C(C)=O)CC2)cc1
142 to 143 | CN(CCF)C(=O)c1cc2ccccc2c(-c2ccccc2I)n1
178 to 180 | Cn1nc(-c2nc(OCC(N)=O)c(Cl)cc2F)c(Cl)c1OC(F)F
222 | CCOC(=O)C(=CNc1cc([N+](=O)[O-])ccc1O)C(=O)c1cc(F)c(F)c(F)c1F
125 to 127 | O=C1OC(c2ccccc2)=NC1=Cc1cc(Cl)ccc1Sc1cccs1
192 to 196 | COC(=O)C=Cc1cnc(SC)nc1N
223 to 225 | N#Cc1[nH]c(-c2ccc(Cl)cc2Cl)nc1N
161 to 163 | Cn1c(=O)c2c(ncn2CCC(O)N2CCN(C(=O)c3ccco3)CC2)n(C)c1=O (stereo not drawn)
182 to 185 | CN1CCN(Cc2ccc(NC(=O)C#Cc3ccc(-c4ccc(Cl)cc4)cc3)cc2)CC1
158 | CC(C)Nc1cccnc1N1CCN(C(=O)c2ccc(C(=O)N3CCN(CC(O)CO)CC3)cc2)CC1 (stereo not drawn)
105 to 106 | COc1ccc(C2OCc3ccccc3O2)cc1O (stereo not drawn)
185 to 187 | CC1Cc2cc3c(cc2C(c2ccc([N+](=O)[O-])cc2)=NN1C1=NCCS1)OCO3 (stereo not drawn)
111 to 113 | CSC(=NCc1cccc2ccccc12)NCC1CCN(S(=O)(=O)c2cccc3ccccc23)CC1
125 to 127 | Cc1cc(C(=O)N(C2CCCCC2)C2CCCC2)ccc1Br
206 to 208 | CCC(=O)N(C)Cc1cccc2c1C(=O)N(C1CCC(=O)NC1=O)C2=O (stereo not drawn)
184 to 192 | CC(C)(CCO)c1ccc2ncc(C(=O)NCc3ccc(Cl)cc3)c(O)c2c1

melting point [°C] | Structure (SMILES)
117 to 118 | CC12CCC3c4cc(O)c(OCc5ccccc5)cc4CCC3C1CCC2OCc1ccccc1 (stereo not drawn)
> 280 | N=C(N)NN=C1CCc2ccc(N)cc21
218 to 220 | CC1=C(S(C)(=O)=O)C(c2ccc(Cl)c(Cl)c2)C2=C(CCC2=O)N1 (stereo not drawn)
159 to 162 | CNc1nc(N)nc(NC2CC2)n1
202 to 204 | CCCCc1nc2cccc(C(=O)O)c2n1Cc1ccn2c(C(=O)O)c(-c3ccccc3)nc2c1
120 to 121 | C[C@@H](Cc1cc(F)cc2ccoc12)NC(=O)OC(C)(C)C
> 250 | O=C(Nc1ccccc1O)C(=O)Nc1ccccc1O
58 to 60 | NCc1ccc(N2CCC2)cc1
109 to 111 | CCCCC(O)c1ccc2cc(O)ccc2c1 (stereo not drawn)
155 | CCCOC(=O)C1=C(N)NC(C)=C(C(=O)OC)C1c1cccc([N+](=O)[O-])c1 (stereo not drawn)
124 to 125 | CCN1C[C@@H](SCc2ccc(OC)cc2)C[C@H]1C(N)=O
106 to 107 | CC(C)Oc1ccc(Cc2cc3cccc(-c4cccc(C(=O)NCCO)c4)c3s2)cn1
> 300 | CC(=Cc1cnc2nc(N)nc(N)c2c1)c1ccc(C(=O)OC(C)(C)C)cc1
68 to 70 | O=C(C(=O)c1ccc(F)c(CF)c1)c1ccc(OC(F)F)cc1
110 to 115 | CCCCCCCCCCCCCCCCCCCCC1Cc2cc(C(=O)O)ccc2N1 (racemic)
124 | CCCC[C@H](NC(=O)[C@H](CC(C)C)NC(=O)c1ccc(OC)cc1)C(=O)CSCc1ccco1
138 to 141 | CCN1C(=O)C=C(c2ccc(Cl)c(Cl)c2)C1=O
121 to 123 | COC(=O)c1c(Oc2ccc(Cl)cc2N)c2ccccc2n1Cc1ccccc1
103 | CC#CCOc1ccc(S(=O)(=O)C(C(=O)NO)C2CCN(C(C)=O)CC2)cc1 (stereo not drawn)
66 | CCOC(=O)c1cnc(N2CCN(Cc3ccccc3)CC2)nc1C(=O)OCC
224 to 225 | Cc1cc(-c2nc3cccnn3c2-c2ccnc(NC(=O)c3ccnc(Cl)c3)c2)ccc1F
145 to 147 | CCOC(=O)C1=C(COCCNC2=NCCS2)NC(C)=C(C(=O)OC)C1c1ccccc1Cl (stereo not drawn)
164 to 165 | N#Cc1ccc(C(=O)N2CCN(c3ccncc3)CC2)cc1

melting point [°C] | Structure (SMILES)
112 to 114 | COc1cccc(COCCC(C(=O)O)c2ccccc2)c1 (stereo not drawn)
160 | CSc1ccc(C=CC(=O)c2ccc([N+](=O)[O-])cc2)cc1
158 | O=C(O)C1CCCn2c(=O)n(CS)c(=O)n21 (stereo not drawn)
280 to 282 | C(C#Cc1c2ccccc2cc2ccccc12)#Cc1c2ccccc2cc2ccccc12
250 to 253 | CC(=O)NC1CCN(Cc2cnc3cc(NC(=O)c4ccc(-c5ccc(F)cc5)cc4)ccc3c2)C1 (stereo not drawn)
209 to 210 | COc1cc(Cc2cnc(N)nc2N)cc(OC)c1N
237 to 240 | N#Cc1cccc(-c2nc(-c3ccc(C(N)=O)cc3)cc3cccnc23)c1
59.7 to 60.7 | C=CC(=O)OCCCCCCCCCCCCOc1ccc(-c2cccc(F)c2F)cc1
137 to 140 | C1COC2(OC1)OCCCO2
93 to 95 | COc1ccc2cc(C(=O)C(C)(C)c3ccccc3)oc2c1
80 to 82 | COc1ccc(NC(=O)OC(C)(C)C)c(C)c1
129 to 130 | Cc1cc(Cn2nnn(-c3cc(C(F)(F)F)cc(C(F)(F)F)c3)c2=O)ccc1N
152 to 153 | COc1cc2c(cc1O)CCN(Cc1cc(OC)c(OC)cc1OC)C2
172 to 174 | O=C(CN1CCSCC1)N1CCC(C2c3ccc(Cl)c(Br)c3CCc3cc(Br)cnc32)CC1 (stereo not drawn)
193 to 198 | CNC(=O)CS(=O)(=O)Nc1c(F)cccc1Oc1nc(OC)cc(OC)n1
95 to 96 | CCOC(=O)C1CCc2[nH]c3ccccc3c2C1 (stereo not drawn)
82.8 to 98.7 | CS(=O)(=O)c1ccc(C(Cc2cccc(F)c2)C(=O)Nc2cnc(CO)cn2)cc1 (stereo not drawn)
118 to 119 | CC(=O)C1(COC(N)=O)CC2C=CC1C2 (stereo not drawn)
53 to 55 | C=C1C2CCCCC2CC2C(OC)OCC12 (stereo not drawn)
320 | O=C(Nc1nc2cc(O)ccc2[nH]1)NC1CC1
105 to 110 | COc1ccc(C(OC(C)=O)c2cc(OCc3ccccc3)ccc2OC)nc1 (stereo not drawn)
169 | CN(C)CCCNC(=O)c1ccccc1-c1cc2cc(Cl)c(Cl)cc2[nH]1

Structure (SMILES) | melting point [°C]
Cc1cccn2cc(CCl)nc12 | 115 to 117
CC(=O)NC(=O)C(Cl)C(C)=O (stereo not drawn) | 54 to 58
O=S1(=O)c2cccc3cccc(c23)N1CCCN1CC=C(c2c[nH]c3ccc(O)cc23)CC1 | 214
O=C(O)C[S@](=O)C(c1ccccc1)c1ccccc1 | 118 to 120
COc1cccc2oc(C(=O)C34CC5CC(CC(C5)C3)C4)cc12 | 96 to 98
